Source: publication PMC6858493 (ACS chemical biology, 2019)

What was measured:
E. coli Lon = settings: cited from earlier work
Lon [1] = target: Lon (Escherichia coli, UniProt P0A9M0); test: biochemical; type: biochemical, E. coli; settings: for inhibition of recombinant Lon: with varied pre-incubation time
E. coli [2] = test: E. coli exponential growth rate; type: cell-based, Escherichia coli; settings: 100 μM compound
[3] = system: RAW 264.7 murine macrophages; test: cells; type: cell-based; settings: Mus musculus, RAW264.7, 24 h, read-out: EC50 (cell killing)
Lon [4] = settings: ratio of normalized cleavage rates at 25 μM substrate
h20S (β5) = h20S (β5) (Homo sapiens, UniProt P28074); test: h20S β5 subunit inhibition assay; type: biochemical
E. coli [5] = test: Ciprofloxacin persister cell quantification; type: cell-based, Escherichia coli
E. coli [6] = test: Ciprofloxacin MIC measurement; type: cell-based, Escherichia coli; settings: wild-type cells, 100 μm 11
h20S (β2) = h20S (β2) (Homo sapiens, UniProt Q99436); test: h20S β2 subunit inhibition assay; type: biochemical; settings: 60 min enzyme-inhibitor pre-incubation; mean ± SD, n=3
h20S (β1) = h20S (β1) (Homo sapiens, UniProt P28072); test: h20S β1 subunit inhibition assay; type: biochemical
E. coli [7] = test: UV-induced filamentation of E. coli; type: cell-based, Escherichia coli
[8] = 60 min enzyme-inhibitor pre-incubation, mean ± SD, n=3

Lon (Escherichia coli, UniProt P0A9M0), sequence (P0A9M0 whole entry): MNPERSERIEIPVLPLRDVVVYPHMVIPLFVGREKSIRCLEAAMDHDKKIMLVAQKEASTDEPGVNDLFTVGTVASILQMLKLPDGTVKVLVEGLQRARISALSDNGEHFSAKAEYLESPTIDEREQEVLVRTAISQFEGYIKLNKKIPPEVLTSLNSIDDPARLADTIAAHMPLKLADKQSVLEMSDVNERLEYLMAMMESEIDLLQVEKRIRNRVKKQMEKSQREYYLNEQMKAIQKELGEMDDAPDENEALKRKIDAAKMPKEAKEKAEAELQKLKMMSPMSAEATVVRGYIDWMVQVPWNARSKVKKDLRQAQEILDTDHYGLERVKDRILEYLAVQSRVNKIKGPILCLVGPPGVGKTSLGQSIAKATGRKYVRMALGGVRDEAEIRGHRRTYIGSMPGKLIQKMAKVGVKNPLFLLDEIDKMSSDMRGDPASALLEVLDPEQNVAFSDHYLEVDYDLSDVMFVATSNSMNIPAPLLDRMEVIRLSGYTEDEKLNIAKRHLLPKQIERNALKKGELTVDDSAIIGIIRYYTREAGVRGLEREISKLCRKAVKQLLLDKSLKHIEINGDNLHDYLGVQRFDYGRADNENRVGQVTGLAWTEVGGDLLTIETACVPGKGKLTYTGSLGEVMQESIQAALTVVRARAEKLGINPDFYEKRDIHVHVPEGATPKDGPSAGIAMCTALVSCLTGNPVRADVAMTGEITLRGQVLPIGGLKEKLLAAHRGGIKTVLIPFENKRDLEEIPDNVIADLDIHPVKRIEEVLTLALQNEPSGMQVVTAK

CN(C)c1cccc2c(S(=O)(=O)F)cccc12 [dansyl fluoride]
inhibition of E. coli Lon (E. coli Lon): only at mM concentrations

CC(C)C[C@H](NC(=O)[C@H](Cc1ccccc1)NC(=O)c1cnccn1)B(O)O [BZ, bortezomib, reference compound]
IC50 (Lon [1]): 0.5 ± 0.23 µM
inhibition of recombinant Lon (Lon [1]): potent, time-dependent inhibition
effect on exponential growth rates (E. coli [2]): nor treatment with 100 μM 11 or BZ had an effect
EC50 [3]: 0.16 µM

Mo-Leu-Leu-Phe-ACC [compound 1]
selectivity of cleavage, Lon vs h20S (Lon [4]): cleaved equally effectively by both Lon and the proteasome

CC(C)C[C@H](NC(=O)[C@H](CC(C)(C)C)NC(=O)[C@H](CCCCNC(=N)N)NC(=O)c1cnccn1)B(O)O [compound 11, Pyz-hArg-nptGly-Leu-B(OH)2]
IC50 (h20S (β5); [8]): 0.29 ± 0.0064 µM
Relative activity (ratio of BZ IC50 to 11 IC50) (h20S (β5); h20S β5): 0.1
time course of killing (E. coli [5]; co-treatment with ciprofloxacin and 100 μM 11): faster death than wild type
fraction of cells that tolerated ciprofloxacin (E. coli [5]; sulA mutant strain): this effect was abrogated
fraction of cells that tolerated ciprofloxacin (E. coli [5]; wild-type cells, co-treatment with 10 μg/mL ciprofloxacin, LB and M9 media): statistically-significant reduction
Relative activity (ratio of BZ IC50 to 11 IC50) (Lon [1]; Lon): 1.2
kinact/KI relative to BZ (Lon [1]; time-dependent inhibition of Lon): two-fold higher
inhibition of recombinant Lon (Lon [1]): potent, time-dependent inhibition
effect on MIC of ciprofloxacin (E. coli [6]): nor treatment of wild-type cells with 100 μm 11 altered the overall MIC
effect on exponential growth rates (E. coli [2]): nor treatment with 100 μM 11 or BZ had an effect
IC50 (h20S (β2)): 0.43 ± 0.04 µM
IC50 (h20S (β1); [8]): 1.9 ± 0.14 µM
Relative activity (ratio of BZ IC50 to 11 IC50) (h20S (β1); h20S β1): 0.2
filamentation after UV stress (E. coli [7]; sulA mutant strain): no effect on filamentation
filamentation after UV stress (E. coli [7]; wild-type, treatment during 6 h outgrowth following UV-stress): dose-dependent increase in filamentation
